Test results: BigSolDB 2.1

CCOC(=O)OC1=C(c2cc(C)ccc2C)C(=O)NC12CCC(OC)CC2 (stereo unspecified)
solubility (mole fraction)
Settings	278.15 K	283.15 K	288.15 K	293.15 K	298.15 K	303.15 K	308.15 K	313.15 K	318.15 K
in acetone	0.012	0.0151	0.0183	0.0221	0.0267	0.0323	0.0392	0.0472	0.0571
in ethanol	0.00319	0.00386	0.00504	0.00624	0.008	0.0103	0.0132	0.0169	0.0219
in isopropanol	0.00177	0.00232	0.0031	0.00415	0.00543	0.00711	0.00939	0.0125	0.0165
in methanol	0.00534	0.00669	0.00803	0.01	0.0127	0.0159	0.0202	0.0257	0.0321
